Measurements as given in patent US10039284B2, “Pesticidal compositions” (priority 2006, dated 2018).
Where two headings read alike, the source gives them in different places.

Assays:
[1] = tested on: Common Cutworm (Spodoptera litura); test: whole plant or invertebrate; conditions: for Mortality (%): 5th or 6th day
Procedure: They were diluted to a predetermined concentration with water containing a spreader (Shin-Rinoh 0.040) and subjected to the test by themselves or as a mixed liquid.
A leaf segment of cabbage was dipped for about 10 seconds in an insecticidal solution and dried in air. A wet filter paper was laid in a petri dish having a diameter of 9 cm, and the dried leaf segment of cabbage was placed thereon. 10 Second-instar larvae of common cutworm were released therein and after putting a cover, left in a constant temperature chamber at 25° C. with lightening. On the 5th or 6th day after release, dead larvae were counted, and the mortality was calculated by the following equation. Here, the insects that were moribund were counted as dead insects. Mortality (%)={(number of dead insects)/(number of surviving insects+number of dead insects)}×100
Further, the theoretical mortality (%) can be calculated from the colby's formula.

[2] = tested on: Green Peach Aphid (Myzus persicae); test: Test on Controlling Effects Against Green Peach Aphid (radish leaf dip); type: in vivo; conditions: third day after the dipping; for mortality at 100 ppm: other pesticide alone 100 ppm; for mortality at 200 ppm: other pesticide alone 200 ppm; for mortality at 0.05 ppm: other pesticide alone 0.05 ppm
Procedure: Japanese radish leaf (cut into about 2 cm×3 cm) was put in a test tube in which water was put, and Larvae of green peach aphid were released on the leaf. […] On the third day after the dipping, dead larvae were counted, and the mortality was calculated from the following equation. Aphids that dropped from leaf or were moribund were included in the number of dead. […] Mortality (%)=(number of dead insects/number of treated insects)×100

[3] = tested on: Green Rice Leafhopper (Nephotettix cincticeps); test: Test on Controlling Effects Against Green Rice Leafhopper (rice seedling dip); type: in vivo
Excerpt: The root was wrapped with absorbent cotton wet with water, and the rice seedling was put in a test tube.

[4] = Spodoptera litura, in Brassica oleracea, foliar

CC1(C)[C@H](C(=O)O[C@H](C#N)c2cccc(Oc3ccccc3)c2)[C@@H]1C=C(Br)Br [Deltamethrin, deltamethrin]
mortality at 0.4 ppm [1, 4]: 30%

O=C(NC(=O)c1c(F)cccc1F)Nc1ccc(Oc2ccc(C(F)(F)F)cc2Cl)cc1F [Flufenoxuron, flufenoxuron]
mortality at 0.01 ppm [1, 4]: 0% | mortality at 0.02 ppm [1, 4]: 20% | mortality at 0.04 ppm [1, 4]: 20%

CC(C)(C)c1ccc(CSc2cnn(C(C)(C)C)c(=O)c2Cl)cc1 [Pyridaben, pyridaben]
mortality at 100 ppm [1, 4]: 0% | mortality at 200 ppm [1, 4]: 10%

CCc1ccc(C(=O)NN(C(=O)c2cc(C)cc(C)c2)C(C)(C)C)cc1 [Tebufenozide, tebufenozide]
mortality at 1.5 ppm [1, 4]: 20%

CC1(C)C(C=C(Cl)Cl)C1C(=O)OC(C#N)c1cccc(Oc2ccccc2)c1 (stereo not shown) [Zeta-cypermethrin, zeta-cypermethrin]
mortality at 0.4 ppm [1, 4]: 0% | mortality at 0.8 ppm [1, 4]: 0% | mortality at 1.5 ppm [1, 4]: 20%

CC(C)([CH2][Sn]([CH2]C(C)(C)c1ccccc1)([CH2]C(C)(C)c1ccccc1)[O][Sn]([CH2]C(C)(C)c1ccccc1)([CH2]C(C)(C)c1ccccc1)[CH2]C(C)(C)c1ccccc1)c1ccccc1 [fenbutatin oxide]
Mortality (%) ([1]; other pesticide alone 200 ppm): 0%

O=C(NC(=O)c1c(F)cccc1F)Nc1cc(Cl)c(Oc2ncc(C(F)(F)F)cc2Cl)c(Cl)c1 [Chlorfluazuron, chlorfluazuron]
mortality at 0.0025 ppm [1, 4]: 0% | mortality at 0.005 ppm [1, 4]: 0% | mortality at 0.01 ppm [1, 4]: 0%

O=C(Nc1ccccc1)N(Cc1ccc(Cl)cc1)C1CCCC1 [Pencycuron, pencycuron]
mortality at 125 ppm [1, 4]: 0%

C/C=C(\C)C(=O)O[C@H]1C[C@@H](OC(C)=O)[C@@]2(C(=O)OC)CO[C@H]3[C@@H](O)[C@@](C)([C@]45O[C@@]4(C)[C@H]4C[C@@H]5O[C@@H]5OC=C[C@@]54O)[C@H]4[C@]1(CO[C@]4(O)C(=O)OC)[C@@H]32 [Azadirachtin, azadirachtin]
mortality at 3.1 ppm [1, 4]: 0% | mortality at 6.2 ppm ([2]; Myzus persicae, foliar, other pesticide alone 6.2 ppm): 0% | mortality at 12.5 ppm ([2]; Myzus persicae, foliar, other pesticide alone 12.5 ppm): 88%

Cc1ccc(NC(=O)c2snnc2C)cc1Cl [Tiadinil, tiadinil]
mortality at 50 ppm [1, 4]: 0% | mortality at 100 ppm [1, 4]: 0% | mortality at 200 ppm [1, 4]: 0%

C[C@@H](NC(=O)C(C#N)C(C)(C)C)c1ccc(Cl)cc1Cl (stereo partly shown) [Diclocymet, diclocymet]
mortality at 18.8 ppm [1, 4]: 0% | mortality at 37.5 ppm [1, 4]: 0% | mortality at 75 ppm [1, 4]: 0% | mortality at 0.4 ppm ([3]; Nephotettix cincticeps): 0% | mortality at 0.8 ppm ([3]; Nephotettix cincticeps): 0%

Cc1ccc(/N=C/N(C)/C=N/c2ccc(C)cc2C)c(C)c1 [Amitraz, amitraz]
mortality at 62.5 ppm [1, 4]: 0%

N#Cc1nn(-c2c(Cl)cc(C(F)(F)F)cc2Cl)c(N)c1[S+]([O-])C(F)(F)F (stereo not shown) [Fipronil, fipronil]
mortality at 0.4 ppm [1, 4]: 10% | mortality at 0.8 ppm [1, 4]: 60%

CC(C)=CC1C(C(=O)OCc2cccc(Oc3ccccc3)c2)C1(C)C (stereo not shown) [Phenothrin, phenothrin]
mortality at 12.5 ppm [1, 4]: 20% | mortality at 25 ppm [1, 4]: 80%

FC(F)(F)c1ccc(OCCCOc2c(Cl)cc(OCC=C(Cl)Cl)cc2Cl)nc1 [Pyridalyl, pyridalyl]
mortality at 0.4 ppm [1, 4]: 0% | mortality at 1.5 ppm [1, 4]: 80%

CCOCn1c(-c2ccc(Cl)cc2)c(C#N)c(Br)c1C(F)(F)F [Chlorfenapyr, chlorfenapyr]
mortality at 0.4 ppm [1, 4]: 20%

Nc1nc(N)nc(NC2CC2)n1 [Cyromazine, cyromazine]
mortality at 25 ppm [1, 4]: 30% | mortality at 50 ppm [1, 4]: 60%

Cc1c(Cl)cc(-c2ccc(=O)[nH]n2)cc1Cl [Diclomezine, diclomezine]
mortality at 100 ppm ([2]; Myzus persicae, foliar): 0% | mortality at 200 ppm ([2]; Myzus persicae, foliar): 0%

O=C1OCc2c(Cl)c(Cl)c(Cl)c(Cl)c21 [Fthalide, fthalide]
mortality at 50 ppm [1, 4]: 0% | mortality at 100 ppm [1, 4]: 0% | mortality at 200 ppm [1, 4]: 0% | mortality at 50 ppm ([3]; Nephotettix cincticeps, other pesticide alone 50 ppm, 5th or 6th day): 0% | mortality at 100 ppm ([3]; Nephotettix cincticeps, other pesticide alone 100 ppm, 5th or 6th day): 0% | mortality at 200 ppm ([3]; Nephotettix cincticeps, other pesticide alone 200 ppm, 5th or 6th day, read-out: Mortality (%)): 0%

CC1(C)C(C=C(Cl)Cl)C1C(=O)OCc1cccc(Oc2ccccc2)c1 (stereo not shown) [Permethrin, permethrin]
mortality at 3.1 ppm [1, 4]: 0%

C#CCOS(=O)OC1CCCCC1Oc1ccc(C(C)(C)C)cc1 (stereo not shown) [Propargite, propargite]
mortality at 50 ppm [1, 4]: 0% | mortality at 100 ppm [1, 4]: 0% | mortality at 200 ppm [1, 4]: 0%

C=CCOC1=NS(=O)(=O)c2ccccc21 [Probenazole, probenazole]
mortality at 100 ppm ([2]; Myzus persicae, foliar): 0% | mortality at 200 ppm ([2]; Myzus persicae, foliar): 13% | mortality at 200 ppm ([3]; Nephotettix cincticeps): 0%

CC(C)OC(=O)C(C(=O)OC(C)C)=C1SCCS1 [Isoprothiolane, isoprothiolane]
mortality at 200 ppm ([3]; Nephotettix cincticeps): 50%

CC(C)Oc1cccc(NC(=O)c2ccccc2C(F)(F)F)c1 [Flutolanil, flutolanil]
mortality at 125 ppm ([2]; Myzus persicae, foliar, other pesticide alone 125 ppm): 0% | mortality at 250 ppm ([2]; Myzus persicae, foliar, other pesticide alone 250 ppm): 6%

O=C1CCc2cccc3c2N1CC3 [Pyroquilon, pyroquilon]
mortality at 50 ppm [1, 4]: 0% | mortality at 100 ppm [1, 4]: 0% | mortality at 200 ppm [1, 4]: 0%

C/C(=N\C#N)N(C)Cc1ccc(Cl)nc1 [Acetamiprid, acetamiprid]
mortality at 12.5 ppm [1, 4]: 0% | mortality at 25 ppm [1, 4]: 10%

O=[N+]([O-])NC1=NCCN1Cc1ccc(Cl)nc1 [Imidacloprid, imidacloprid]
mortality at 12.5 ppm [1, 4]: 20% | mortality at 50 ppm [1, 4]: 75% | mortality at 0.05 ppm ([2]; Myzus persicae, foliar): 60% | mortality at 0.1 ppm ([2]; Myzus persicae, foliar, other pesticide alone 0.1 ppm): 67%

emamectin-benzoate
Mortality (%) ([1]; other pesticide alone 0.0025 ppm): 0% | Mortality (%) ([1]; other pesticide alone 0.005 ppm): 10% | Mortality (%) ([1]; other pesticide alone 0.01 ppm): 30%

spinosad
Mortality (%) ([1]; other pesticide alone 1.5 ppm): 20% | Mortality (%) ([1]; other pesticide alone 3.1 ppm): 60% | Mortality (%) ([1]; other pesticide alone 6.2 ppm): 60%

CCC1(C(=O)N[C@H](C)c2ccc(Cl)cc2)C(C)C1(Cl)Cl (stereo partly shown) [Carpropamid, carpropamid]
mortality at 100 ppm ([2]; Myzus persicae, foliar): 82% | mortality at 200 ppm ([2]; Myzus persicae, foliar): 93%

Cc1cccc2sc3nncn3c12 [Tricyclazole, tricyclazole]
mortality at 100 ppm ([2]; Myzus persicae, foliar): 13% | mortality at 200 ppm ([2]; Myzus persicae, foliar): 0%

O=C(NC(=O)c1c(F)cccc1F)Nc1cc(Cl)c(OC(F)(F)C(F)C(F)(F)F)cc1Cl (stereo not shown) [Lufenuron, lufenuron]
mortality at 0.0125 ppm [1, 4]: 70%

Cc1ccccc1C(=O)Nc1cccc(OC(C)C)c1 [Mepronil, mepronil]
mortality at 187.5 ppm ([3]; Nephotettix cincticeps): 0%

Cc1c(COC(=O)[C@@H]2[C@H](/C=C(\Cl)C(F)(F)F)C2(C)C)cccc1-c1ccccc1 (racemic) [Bifenthrin, bifenthrin]
mortality at 0.4 ppm [1, 4]: 0% | mortality at 0.8 ppm [1, 4]: 40% | mortality at 0.025 ppm ([2]; Myzus persicae, foliar, other pesticide alone 0.025 ppm): 0% | mortality at 0.05 ppm ([2]; Myzus persicae, foliar): 4%

N#C/N=C1\SCCN1Cc1ccc(Cl)nc1 [Thiacloprid, thiacloprid]
mortality at 50 ppm [1, 4]: 67%

CCCCCCCCCCCCC1=C(OC(C)=O)C(=O)c2ccccc2C1=O [Acequinocyl, acequinocyl]
mortality at 37.5 ppm [1, 4]: 0% | mortality at 75 ppm [1, 4]: 0% | mortality at 150 ppm [1, 4]: 0%

CN/C(=N/CC1CCOC1)N[N+](=O)[O-] (stereo not shown) [Dinotefuran, dinotefuran]
mortality at 3.1 ppm [1, 4]: 0% | mortality at 6.2 ppm [1, 4]: 0% | mortality at 12.5 ppm [1, 4]: 13%

N#CCNC(=O)c1cnccc1C(F)(F)F [Flonicamid, flonicamid]
Mortality (%) ([1]; other pesticide alone 25 ppm): 0% | Mortality (%) ([1]; other pesticide alone 50 ppm): 30% | Mortality (%) ([1]; other pesticide alone 100 ppm): 0% | Mortality (%) ([2]; other pesticide alone 0.8 ppm): 38% | Mortality (%) ([2]; other pesticide alone 1.5 ppm): 70%

CC(=O)N1C(=O)N(NCc2cccnc2)Cc2cc(C(F)(C(F)(F)F)C(F)(F)F)ccc21 [Pyrifluquinazon, pyrifluquinazon]
Mortality (%) ([1]; other pesticide alone 25 ppm): 0% | Mortality (%) ([1]; other pesticide alone 50 ppm): 0% | Mortality (%) ([1]; other pesticide alone 100 ppm): 0%

C[C@H]1O[C@H](O[C@H]2[C@H](O)[C@@H](O)[C@@H](O)[C@H](O)[C@@H]2O)[C@@H](N)C[C@@H]1NC(=N)C(=O)O [Kasugamycin, kasugamycin]
Mortality (%) ([2]; other pesticide alone 11.5 ppm): 0%

CCOP(=O)(SC(C)CC)N1CCSC1=O (stereo not shown) [Fosthiazate, fosthiazate]
mortality at 25 ppm [1, 4]: 88%

CO/C=C(/C(=O)OC)c1ccccc1Oc1cc(Oc2ccccc2C#N)ncn1 [Azoxystrobin, azoxystrobin]
Mortality (%) ([3]; other pesticide alone 25 ppm, 5th or 6th day): 30%

CN/C(=N\[N+](=O)[O-])NCc1cnc(Cl)s1 [Clothianidin, clothianidin]
mortality at 12.5 ppm [1, 4]: 90%

OCC1=C[C@H](N[C@H]2C[C@H](CO)[C@@H](O[C@@H]3O[C@H](CO)[C@@H](O)[C@H](O)[C@H]3O)[C@H](O)[C@H]2O)[C@H](O)[C@@H](O)[C@@H]1O [Validamycin, validamycin]
mortality at 25 ppm [1, 4]: 0% | mortality at 50 ppm [1, 4]: 0%
